Assay results: patent US9056874B2, “Complement pathway modulators and uses thereof” (NOVARTIS AG, priority 2012, dated 2015)

These compounds were tested against T1, factor B (Homo sapiens, UniProt P00751) (assay: assay of Biological Example 2.7). Conditions: assay of Biological Example 2.7 (Table 2).
Format: binding
Design: made in house; host or cells: drosophila cells
Target sequence in this assay (P00751 26-764): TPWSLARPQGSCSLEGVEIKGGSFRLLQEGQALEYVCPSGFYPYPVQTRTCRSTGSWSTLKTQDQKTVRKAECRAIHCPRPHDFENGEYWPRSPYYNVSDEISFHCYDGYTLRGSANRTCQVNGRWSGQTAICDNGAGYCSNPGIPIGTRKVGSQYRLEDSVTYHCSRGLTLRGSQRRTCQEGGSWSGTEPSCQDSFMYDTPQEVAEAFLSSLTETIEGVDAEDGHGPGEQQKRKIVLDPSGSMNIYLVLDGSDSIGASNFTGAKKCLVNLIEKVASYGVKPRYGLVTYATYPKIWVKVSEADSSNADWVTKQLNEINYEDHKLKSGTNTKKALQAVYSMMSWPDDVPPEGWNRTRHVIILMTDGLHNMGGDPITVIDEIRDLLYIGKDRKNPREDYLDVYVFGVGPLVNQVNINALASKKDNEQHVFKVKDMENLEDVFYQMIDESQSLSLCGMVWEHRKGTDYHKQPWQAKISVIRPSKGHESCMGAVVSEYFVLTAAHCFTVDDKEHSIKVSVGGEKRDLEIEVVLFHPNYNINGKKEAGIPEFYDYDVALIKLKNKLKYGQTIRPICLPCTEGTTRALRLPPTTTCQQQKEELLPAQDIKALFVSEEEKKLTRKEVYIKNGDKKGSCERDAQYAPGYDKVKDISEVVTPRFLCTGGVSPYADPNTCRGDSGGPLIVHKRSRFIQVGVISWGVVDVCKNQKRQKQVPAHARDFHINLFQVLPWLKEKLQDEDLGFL
`COc1cc(C)c2[nH]ccc2c1C(C)(N)c1nc2cc(C#N)ccc2[nH]1` (single isomer, unassigned; (-)) [41-B b) (−), (−)-2-(1-amino-1-(5-methoxy-7-methyl-1H-indol-4-yl)ethyl)-1H-benzo[d]imidazole-5-carbonitrile] showed an IC50 of 10 nM.
For `COc1cc(C)c2[nH]ccc2c1C(C)(OC)c1nc2cc(C#N)ccc2[nH]1` (single isomer, unassigned; (-)) [27-B b) (−), (−)-2-(1-methoxy-1-(5-methoxy-7-methyl-1H-indol-4-yl)ethyl)-1H-benzo[d]imidazole-5-carbonitrile], the IC50 was 4 nM.
For `COc1cc(C)c2[nH]ccc2c1C(N)(c1nc2cc(C#N)ccc2[nH]1)C(F)(F)F` (racemic) [36-E b) (−), (−)-2-(1-amino-2,2,2-trifluoro-1-(5-methoxy-7-methyl-1H-indol-4-yl)ethyl)-1H-benzo[d]imidazole-5-carbonitrile], the IC50 was 30 nM.
In the case of `COc1cc(C)c2[nH]ccc2c1C(Cc1nn[nH]n1)c1nc2cc(C#N)ccc2o1` (racemic) [Example 153, (±)-2-(1-(5-Methoxy-7-methyl-1H-indol-4-yl)-2-(2H-tetrazol-5-yl)ethyl)benzo[d]oxazole-5-carbonitrile], the IC50 is reported as 1110 nM.
Compound `Cc1cc(Br)c(C(C)(N)c2nc3cc(C#N)ccc3[nH]2)c2cc[nH]c12` (single isomer, unassigned; (-)) [137-A b) (−), (−)-2-(1-amino-1-(5-bromo-7-methyl-1H-indol-4-yl)ethyl)-1H-benzo[d]imidazole-5-carbonitrile] has an IC50 of 20 nM.
With `COC(=O)CC(C)(c1nc2cc(C#N)ccc2[nH]1)c1c(OC)cc(C)c2c1CCN2` (racemic) [Example 156-K, (±)-Methyl 3-(5-cyano-1H-benzo[d]imidazol-2-yl)-3-(5-methoxy-7-methylindolin-4-yl)butanoate] the IC50 was 130 nM.
In the case of `COc1cc(C)c2[nH]ccc2c1C(CC(C)CO)c1nc2cc(C#N)ccc2[nH]1` (racemic) [Example 151-C, (±)-2-(4-Hydroxy-1-(5-methoxy-7-methyl-1H-indol-4-yl)-3-methylbutyl)-1H-benzo[d]imidazole-5-carbonitrile], the IC50 is reported as 92 nM.
With `COc1cc(C)c2[nH]ccc2c1C(C)(CCC(=O)O)c1nc2cc(C#N)ccc2o1` (racemic) [Example 150-C, (±)-4-(5-cyanobenzo[d]oxazol-2-yl)-4-(5-methoxy-7-methyl-1H-indol-4-yl)pentanoic acid] the IC50 was 1020 nM.
`Cc1cc(C2CC2)c(C(OCC(=O)O)(c2nc3cc(C#N)ccc3[nH]2)C(F)(F)F)c2cc[nH]c12` (racemic) [Example 109-C, (±)-2-(1-(5-Cyano-1H-benzo[d]imidazol-2-yl)-1-(5-cyclopropyl-7-methyl-1H-indol-4-yl)-2,2,2-trifluoroethoxy)acetic acid] was tested, and the IC50 was 65 nM.
Compound `COc1cc(C)c2[nH]ccc2c1C(C)(OC)c1nc2ccc(C#N)cc2s1` (stereo not shown) [Example 137-W] has an IC50 of 5220 nM.
Compound `COc1cc(C)c2[nH]ccc2c1C(CCCC(=O)O)c1nc2cc(C#N)ccc2[nH]1` (racemic) [Example 157, (±)-5-(5-Cyano-1H-benzo[d]imidazol-2-yl)-5-(5-methoxy-7-methyl-1H-indol-4-yl)pentanoic acid] has an IC50 of 39 nM.
`COc1cc(C)c2[nH]ccc2c1C(C)(CCC(=O)O)c1nc2cc(C#N)ccc2[nH]1` (racemic) [Example 155-M, (±)-4-(5-Cyano-1H-benzo[d]imidazol-2-yl)-4-(5-methoxy-7-methyl-1H-indol-4-yl)pentanoic acid] was tested, and the IC50 was 20 nM.
In the case of `COc1cc(C)c2[nH]ccc2c1C(C)(OC)c1nc2cc(C#N)ccc2o1` (single isomer, unassigned; (+)) [137-K b) (+), (+)-2-(1-methoxy-1-(5-methoxy-7-methyl-1H-indol-4-yl)ethyl)benzo[d]oxazole-5-carbonitrile], the IC50 is reported as 820 nM.
Compound `COc1cc(C)c2[nH]cc3c2c1C(c1nc2cc(C#N)ccc2[nH]1)(C(F)(F)F)NC3` (single isomer, unassigned; (+)) [Example 36-F, (+)-2-(6-methoxy-8-methyl-5-(trifluoromethyl)-1,3,4,5-tetrahydropyrrolo[4,3,2-de]isoquinolin-5-yl)-1H-benzo[d]imidazole-5-carbonitrile] has an IC50 of 12 nM.
For `COc1cc(C)c2[nH]ccc2c1C(c1nc2cc(C#N)ccc2[nH]1)C(C)C(=O)O` (single isomer, unassigned; diastereomer a) [Example 147-D, (±)-3-(5-Cyano-1H-benzo[d]imidazol-2-yl)-3-(5-methoxy-7-methyl-1H-indol-4-yl)-2-methylpropanoic acid (Diastereomer A)], the IC50 was 790 nM.
`COc1cc(C)c2[nH]ccc2c1C(OC(F)C(=O)O)(c1nc2cc(C#N)ccc2[nH]1)C(F)(F)F` (racemic) [Example 35-G, (±)-2-(1-(5-Cyano-1H-benzo[d]imidazol-2-yl)-2,2,2-trifluoro-1-(5-methoxy-7-methyl-1H-indol-4-yl)ethoxy)-2-fluoroacetic acid] was tested, and the IC50 was 770 nM.
`COc1cc(C)c2[nH]ccc2c1C(NCCN)(c1nc2cc(C#N)ccc2[nH]1)C(F)(F)F` (racemic) [38-D b) (−), (−)-2-(1-((2-aminoethyl)amino)-2,2,2-trifluoro-1-(5-methoxy-7-methyl-1H-indol-4-yl)ethyl)-1H-benzo[d]imidazole-5-carbonitrile] gave an IC50 of 780 nM.
`[2H]C([2H])([2H])OC(c1nc2cc(C#N)ccc2[nH]1)(c1c(OC)cc(C)c2[nH]ccc12)C(F)(F)F` (single isomer, unassigned; (+)) [137-J b) (+), (+)-2-(2,2,2-trifluoro-1-(^2H3)-methoxy-1-(5-methoxy-7-methyl-1H-indol-4-yl)ethyl)-1H-benzo[d]imidazole-5-carbonitrile] was tested, and the IC50 was 1300 nM.
With `COc1cc(C)c2[nH]ccc2c1C(C)(Cc1nn[nH]n1)c1nc2cc(C#N)ccc2o1` (racemic) [Example 154, (±)-2-(2-(5-Methoxy-7-methyl-1H-indol-4-yl)-1-(2H-tetrazol-5-yl)propan-2-yl)benzo[d]oxazole-5-carbonitrile] the IC50 was 21100 nM.
For `COc1cc(C)c2[nH]ccc2c1C(CC(=O)O)c1nc2cc(C#N)ccc2o1` (single isomer, unassigned; (-)) [Example 148-E, (−)-3-(5-cyanobenzo[d]oxazol-2-yl)-3-(5-methoxy-7-methyl-1H-indol-4-yl)propanoic acid], the IC50 was 420 nM.
With `COc1cc(C)c2[nH]ccc2c1C(C)(O)c1cc2ccc(C#N)cc2o1` (stereo not shown) [Example 137-X] the IC50 was 190 nM.
In the case of `COc1cc(C)c2[nH]ccc2c1C(CCO)c1nc2cc(C#N)ccc2[nH]1` (racemic) [Example 145-E, (±)-2-(3-hydroxy-1-(5-methoxy-7-methyl-1H-indol-4-yl)propyl)-1H-benzo[d]imidazole-5-carbonitrile], the IC50 is reported as 250 nM.

These compounds were tested against T1, factor B (assay: factor B inhibition assay of Biological Example 1). Conditions: IC50 (nM), assay of Biological Example 1 (Table 1).
Format: biochemical
Design: CVF-Bb complex prepared from purified cobra venom factor (1 μM), recombinant human complement factor B; made in house; host or cells: drosophila cells (factor B); E. coli (factor D used to form the complex)
Target sequence in this assay (P00751 260-764 limits assumed): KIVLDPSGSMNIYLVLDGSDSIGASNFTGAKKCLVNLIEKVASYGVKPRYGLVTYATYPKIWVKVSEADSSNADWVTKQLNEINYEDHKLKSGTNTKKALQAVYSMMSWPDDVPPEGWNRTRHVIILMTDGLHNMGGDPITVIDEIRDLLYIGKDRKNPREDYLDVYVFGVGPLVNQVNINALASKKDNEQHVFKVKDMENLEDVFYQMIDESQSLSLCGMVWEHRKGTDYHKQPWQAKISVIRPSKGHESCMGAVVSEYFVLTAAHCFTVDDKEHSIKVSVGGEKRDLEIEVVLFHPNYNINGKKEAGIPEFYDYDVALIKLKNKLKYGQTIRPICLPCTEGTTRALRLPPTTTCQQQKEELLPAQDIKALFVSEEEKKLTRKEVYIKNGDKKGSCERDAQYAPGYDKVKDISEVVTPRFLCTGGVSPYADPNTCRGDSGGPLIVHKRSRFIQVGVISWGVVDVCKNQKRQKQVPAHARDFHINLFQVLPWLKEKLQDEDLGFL
Target sequence in this assay (Q91132 23-649 partner limits assumed): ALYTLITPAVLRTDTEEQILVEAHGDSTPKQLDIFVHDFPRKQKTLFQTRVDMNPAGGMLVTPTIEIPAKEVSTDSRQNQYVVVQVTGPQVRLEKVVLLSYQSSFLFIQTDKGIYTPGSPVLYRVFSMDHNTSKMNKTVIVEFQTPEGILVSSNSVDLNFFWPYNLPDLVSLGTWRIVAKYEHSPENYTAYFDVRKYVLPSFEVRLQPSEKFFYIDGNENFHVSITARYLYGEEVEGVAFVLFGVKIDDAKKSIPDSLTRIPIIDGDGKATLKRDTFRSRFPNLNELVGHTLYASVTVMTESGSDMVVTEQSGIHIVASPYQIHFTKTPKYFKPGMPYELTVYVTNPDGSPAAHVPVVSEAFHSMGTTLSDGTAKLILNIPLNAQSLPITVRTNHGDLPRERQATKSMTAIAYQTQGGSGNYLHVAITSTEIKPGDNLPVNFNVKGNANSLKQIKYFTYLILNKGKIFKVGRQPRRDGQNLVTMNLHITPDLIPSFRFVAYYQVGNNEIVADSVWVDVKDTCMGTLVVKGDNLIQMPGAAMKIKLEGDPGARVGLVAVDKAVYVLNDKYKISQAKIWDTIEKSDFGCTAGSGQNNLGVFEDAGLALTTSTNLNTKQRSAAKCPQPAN
Target sequence in this assay (Q91132 733-984 partner limits assumed): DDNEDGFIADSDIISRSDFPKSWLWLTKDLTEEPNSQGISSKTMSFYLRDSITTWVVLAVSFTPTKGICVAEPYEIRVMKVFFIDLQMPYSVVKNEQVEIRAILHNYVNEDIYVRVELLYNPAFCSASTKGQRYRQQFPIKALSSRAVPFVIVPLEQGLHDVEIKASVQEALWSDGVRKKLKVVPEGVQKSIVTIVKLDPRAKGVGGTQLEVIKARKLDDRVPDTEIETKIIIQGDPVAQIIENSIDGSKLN
Target sequence in this assay (Q91132 1264-1642 partner limits assumed): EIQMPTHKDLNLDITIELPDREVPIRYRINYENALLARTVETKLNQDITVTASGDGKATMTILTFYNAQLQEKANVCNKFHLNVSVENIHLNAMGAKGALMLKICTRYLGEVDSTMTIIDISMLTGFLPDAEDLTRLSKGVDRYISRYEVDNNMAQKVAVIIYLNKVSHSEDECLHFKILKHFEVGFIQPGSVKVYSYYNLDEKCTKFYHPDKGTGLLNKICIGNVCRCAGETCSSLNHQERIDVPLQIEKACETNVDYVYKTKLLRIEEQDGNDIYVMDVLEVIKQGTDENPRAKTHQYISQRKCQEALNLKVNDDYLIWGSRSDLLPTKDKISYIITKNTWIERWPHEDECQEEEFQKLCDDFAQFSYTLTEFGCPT
`COc1cc(C)c2[nH]ccc2c1C(C)(N)c1nc2cc(C#N)ccc2[nH]1` (single isomer, unassigned; (-)) [41-B b) (−), (−)-2-(1-amino-1-(5-methoxy-7-methyl-1H-indol-4-yl)ethyl)-1H-benzo[d]imidazole-5-carbonitrile] showed an IC50 of 9 nM.
For `COc1cc(C)c2[nH]ccc2c1C(C)(OC)c1nc2cc(C#N)ccc2[nH]1` (single isomer, unassigned; (-)) [27-B b) (−), (−)-2-(1-methoxy-1-(5-methoxy-7-methyl-1H-indol-4-yl)ethyl)-1H-benzo[d]imidazole-5-carbonitrile], the IC50 was 3 nM.
`COc1cc(C)c2[nH]ccc2c1C(N)(c1nc2cc(C#N)ccc2[nH]1)C(F)(F)F` (racemic) [36-E b) (−), (−)-2-(1-amino-2,2,2-trifluoro-1-(5-methoxy-7-methyl-1H-indol-4-yl)ethyl)-1H-benzo[d]imidazole-5-carbonitrile] showed an IC50 of 40 nM.
